Measured values reported in US12029739B2, “SHP2 inhibitor and use thereof” (KANAPH THERAPEUTICS INC., priority 2021, dated 2024).
Read-outs that look alike come from different tables or passages of the source.

Experiments:
SHP2 (full length) = biological target: T1, SHP2 (full length) (Homo sapiens, UniProt Q06124); assay: Phosphatase assay (PTPase assay) with DiFMUP substrate; assay type: biochemical; conditions: SHP2 activated with SHP2 activating peptide, DiFMUP 80 μM, 2 hours, fluorescence
T1 construct: SHP2 (full length, diluted to 100 pM final concentration in reaction buffer, BPS bioscience, US); purchased BPS bioscience, US
T1 sequence (Q06124 1-593): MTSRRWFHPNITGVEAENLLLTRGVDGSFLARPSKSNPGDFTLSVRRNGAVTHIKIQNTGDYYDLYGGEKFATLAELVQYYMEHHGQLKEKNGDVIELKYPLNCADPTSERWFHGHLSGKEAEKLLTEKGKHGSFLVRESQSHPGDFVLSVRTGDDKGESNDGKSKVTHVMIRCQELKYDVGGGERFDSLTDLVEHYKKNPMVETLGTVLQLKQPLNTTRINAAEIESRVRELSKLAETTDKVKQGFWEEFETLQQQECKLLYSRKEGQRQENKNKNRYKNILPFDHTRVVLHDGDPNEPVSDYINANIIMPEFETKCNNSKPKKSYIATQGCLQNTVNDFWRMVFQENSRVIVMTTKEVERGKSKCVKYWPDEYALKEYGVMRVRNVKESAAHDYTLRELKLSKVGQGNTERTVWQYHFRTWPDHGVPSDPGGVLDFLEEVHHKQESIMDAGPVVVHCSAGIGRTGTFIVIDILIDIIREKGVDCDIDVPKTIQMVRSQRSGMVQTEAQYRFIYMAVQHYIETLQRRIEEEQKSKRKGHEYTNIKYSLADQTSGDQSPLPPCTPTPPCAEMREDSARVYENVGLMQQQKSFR

[1] = test system: phospho-ERK in MIA PaCa2 or H358 cells; assay: Phospho-ERK assay (AlphaLisa); assay type: cell-based
[2] = MIA PaCa2 or H358 cells, compound incubated 1.5 hours, read-out: IC50 (p-ERK)
[3] = 1.5 h, MIA PaCa2 or H358 cells, compound incubated 1.5 hours, read-out: IC50 (p-ERK)

SMILES | IC50 (SHP2 (full length); read-out: IC50 (PTPase aS say)) [nM] | IC50 [1, 3] [nM] | IC50 [1, 2] [nM] | IC50 (SHP2 (full length); IC50 (PTPase aS say, nM)) [nM] | IC50 ([1]; 1.5 h, read-out: IC50 (p-ERK, nM)) [nM]
CC1(CN)CCN(c2cnc(Sc3ccc4ncn(Cc5ccccc5)c(=O)c4c3Cl)cn2)CC1 [Example 13, 6-((5-(4-(aminomethyl)-4-methylpiperidin-1-yl)pyrazin-2-yl)thio)-3-benzyl-5-chloroquinazolin-4(3H)-one] | 3 to 100 |  | 45 to 1500 |  | 
COc1cccc(Cn2cnc3ccc(Sc4cnc(N5CCC6(CC5)CO[C@@H](C)[C@H]6N)cn4)c(Cl)c3c2=O)c1F [Example 70, 6-((5-((3S,4S)-4-amino-3-methyl-2-oxa-8-azaspiro[4.5]decan-8-yl)pyrazin-2-yl)thio)-5-chloro-3-(2-fluoro-3-methoxybenzyl)quinazolin-4(3H)-one] | < 3 | < 45 |  |  | 
C[C@@H]1OCC2(CCN(c3cnc(Sc4ccc5ncn(Cc6ccnc(Cl)c6)c(=O)c5c4Cl)cn3)CC2)[C@@H]1N [Example 60, 6-((5-((3S,4S)-4-amino-3-methyl-2-oxa-8-azaspiro[4.5]decan-8-yl)pyrazin-2-yl)thio)-5-chloro-3-((2-chloropyridin-4-yl)methyl)quinazolin-4(3H)-one] | < 3 | < 45 |  |  | 
C[C@@H]1OCC2(CCN(c3cnc(Sc4ccc5ncn(Cc6nccs6)c(=O)c5c4Cl)cn3)CC2)[C@@H]1N [Example 35, 6-((5-((3S,4S)-4-amino-3-methyl-2-oxa-8-azaspiro[4.5]decan-8-yl)pyrazin-2-yl)thio)-5-chloro-3-(thiazol-2-ylmethyl)quinazolin-4(3H)-one] | < 3 | < 45 |  |  | 
CC(=O)Cn1cnc2ccc(Sc3cnc(N4CCC5(CC4)Cc4ncccc4[C@H]5N)cn3)c(Cl)c2c1=O [Example 112] | < 3 |  | < 45 |  | 
C[C@@H]1OCC2(CCN(c3cnc(Sc4ccc5nc[nH]c(=O)c5c4Cl)cn3)CC2)[C@@H]1N [Example 5, 6-((5-((3S,4S)-4-amino-3-methyl-2-oxa-8-azaspiro[4.5]decan-8-yl)pyrazin-2-yl)thio)-5-chloroquinazolin-4(3H)-one] | 3 to 100 | 45 to 1500 |  |  | 
C[C@@H]1OCC2(CCN(c3cnc(Sc4ccc5ncn(Cc6ccccc6F)c(=O)c5c4Cl)cn3)CC2)[C@@H]1N [Example 43, 6-((5-((3S,4S)-4-amino-3-methyl-2-oxa-8-azaspiro[4.5]decan-8-yl)pyrazin-2-yl)thio)-5-chloro-3-(2-fluorobenzyl)quinazolin-4(3H)-one] | < 3 | < 45 |  |  | 
C[C@@H]1OCC2(CCN(c3cnc(Sc4ccc5ncn(Cc6nc7ccccc7[nH]6)c(=O)c5c4Cl)cn3)CC2)[C@@H]1N [Example 37, 3-((1H-benzo[d]imidazol-2-yl)methyl)-6-((5-((3S,4S)-4-amino-3-methyl-2-oxa-8-azaspiro[4.5]decan-8-yl)pyrazin-2-yl)thio)-5-chloroquinazolin-4(3H)-one] | < 3 | < 45 |  |  | 
CCOC(=O)c1cccc(Sc2c(N)nc(N3CCC(C)(N)CC3)n(C)c2=O)c1Cl [Example 2, ethyl 3-((4-amino-2-(4-amino-4-methylpiperidin-1-yl)-1-methyl-6-oxo-1,6-dihydropyrimidin-5-yl)thio)-2-chlorobenzoate] | > 100 |  | 45 to 1500 |  | 
C[C@@H]1OCC2(CCN(c3cnc(Sc4cccc(S(N)(=O)=O)c4Cl)cn3)CC2)[C@@H]1N [Example 9, 3-((5-((3S,4S)-4-amino-3-methyl-2-oxa-8-azaspiro[4.5]decan-8-yl)pyrazin-2-yl)thio)-2-chlorobenzenesulfonamide] | < 3 | < 45 |  |  | 
CC1(CN)CCN(c2cnc(Sc3cccc(S(=O)(=O)F)c3Cl)cn2)CC1 [Example 6, 3-((5-(4-(aminomethyl)-4-methylpiperidin-1-yl)pyrazin-2-yl)thio)-2-chlorobenzenesulfonyl fluoride] |  |  |  | 3 to 100 | 45 to 1500
C[C@@H]1OCC2(CCN(c3cnc(Sc4ccnc(C(=O)NCc5cccnc5)c4Cl)cn3)CC2)[C@@H]1N [Example 87, 4-((5-((3S,4S)-4-amino-3-methyl-2-oxa-8-azaspiro[4.5]decan-8-yl)pyrazin-2-yl)thio)-3-chloro-N-(pyridin-3-ylmethyl)picolinamide] | 3 to 100 | 45 to 1500 |  |  | 
C[C@@H]1OCC2(CCN(c3cnc(Sc4ccc5ncn(CC(O)CF)c(=O)c5c4Cl)cn3)CC2)[C@@H]1N (stereo partly drawn) [Example 76, 6-((5-((3S,4S)-4-amino-3-methyl-2-oxa-8-azaspiro[4.5]decan-8-yl)pyrazin-2-yl)thio)-5-chloro-3-(3-fluoro-2-hydroxypropyl)quinazolin-4(3H)-one] | 3 to 100 | 45 to 1500 |  |  | 
C[C@@H]1OCC2(CCN(c3cnc(Sc4ccc5ncn(Cc6cnccn6)c(=O)c5c4Cl)cn3)CC2)[C@@H]1N [Example 44, 6-((5-((3S,4S)-4-amino-3-methyl-2-oxa-8-azaspiro[4.5]decan-8-yl)pyrazin-2-yl)thio)-5-chloro-3-(pyrazin-2-ylmethyl)quinazolin-4(3H)-one] | < 3 | < 45 |  |  | 

The next lines start with results.

IC50 (SHP2 (full length); read-out: IC50 (PTPase aS say)) [nM] | IC50 [1, 3] [nM] | SMILES | IC50 [1, 2] [nM] | IC50 (SHP2 (full length); IC50 (PTPase aS say, nM)) [nM] | IC50 ([1]; 1.5 h, read-out: IC50 (p-ERK, nM)) [nM]
> 100 | > 1500 | Cn1c(N2CCN[C@@H](CN)C2)nc(N)c(Sc2cccc(Cl)c2Cl)c1=O [Example 196] |  |  | 
> 100 | > 1500 | Cn1c(N2CCCN(CCN)CC2)nc(N)c(Sc2cccc(Cl)c2Cl)c1=O [Example 200, 6-amino-2-(4-(2-aminoethyl)-1,4-diazepan-1-yl)-5-((2,3-dichlorophenyl)thio)-3-methylpyrimidin-4(3H)-one] |  |  | 
< 3 | < 45 | CC(O)CCn1cnc2ccc(Sc3cnc(N4CCC5(CC4)Cc4ncccc4[C@H]5N)cn3)c(Cl)c2c1=O (stereo partly drawn) [Example 111, (6-((5-((S)-5-amino-5,7-dihydrospiro[yclopenta[b]pyridine]-6,4′-piperidin]-1′-yl)pyrazin-2-yl]thio)-5-chloro-3-(3-hydroxybutyl)quinazolin-4(3H)-one] |  |  | 
3 to 100 | 45 to 1500 | COCCn1cnc2ccc(Sc3cnc(N4CCC5(CC4)Cc4nc(Cl)sc4[C@@H]5N)cn3)c(Cl)c2c1=O [Example 157, 6-[5-[(6R)-6-amino-2-chloro-spiro[4,6-dihydrocyclopenta[d]thiazole-5,4′-piperidin]-1′-yl]pyrazin-2-yl]sulfanyl-5-chloro-3-(2-methoxyethyl)quinazolin-4-one] |  |  | 
> 100 | > 1500 | Cn1c(N2CCN(CCN)CC2)nc(N)c(Sc2cccc(Cl)c2Cl)c1=O [Example 194, 6-amino-2-(4-(2-aminoethyl)piperazin-1-yl)-5-((2,3-dichlorophenyl)thio)-3-methylpyrimidin-4(3H)-one] |  |  | 
< 3 | < 45 | C[C@@H]1OCC2(CCN(c3cnc(Sc4ccc5nc(Oc6cccnc6)[nH]c5c4Cl)cn3)CC2)[C@@H]1N [Example 128] |  |  | 
< 3 | < 45 | COC(C)Cn1cnc2ccc(Sc3ncc(N4CCC5(CC4)Cc4ncsc4[C@H]5N)nc3N)c(Cl)c2c1=O (stereo partly drawn) [Example 176] |  |  | 
< 3 | < 45 | C[C@@H]1OCC2(CCN(c3cnc(Sc4ccc5ncn(CCC(F)(F)F)c(=O)c5c4Cl)cn3)CC2)[C@@H]1N [Example 113] |  |  | 
< 3 | < 45 | C[C@@H]1OCC2(CCN(c3cnc(Sc4ccc5ncn(CCN6CCOC6=O)c(=O)c5c4Cl)cn3)CC2)[C@@H]1N [Example 114] |  |  | 
< 3 | < 45 | COCCOc1nc2ccc(Sc3cnc(N4CCC5(CC4)CO[C@@H](C)[C@H]5N)cn3)c(Cl)c2[nH]1 [Example 127] |  |  | 
< 3 | < 45 | COCCn1cnc2ccc(Sc3cnc(N4CCC5(CC4)Cc4scnc4[C@H]5N)cn3)c(Cl)c2c1=O [Example 151, 6-[5-[(4S)-4-aminospiro[4,6-dihydrocyclopenta[d]thiazole-5,4′-piperidin]-1′-yl]pyrazin-2-yl]sulfanyl-5-chloro-3-(2-methoxyethyl)quinazolin-4-one] |  |  | 
< 3 | < 45 | N[C@@H]1c2cccnc2CC12CCN(c1cnc(Sc3ccc4ncn(Cc5cccnc5)c(=O)c4c3Cl)cn1)CC2 [Example 105, (S)-6-((5-(5-amino-5,7-dihydrospiro[yclopenta[b]pyridine-6,4′-piperidin]-1′-yl)pyrazin-2-yl)thio)-5-chloro-(3-pyridin-3-ylmethyl)quinazolin-4(3H)-one] |  |  | 
< 3 | < 45 | C[C@@H]1OCC2(CCN(c3cnc(Sc4ccc5ncn(CC(=O)c6cccnc6)c(=O)c5c4Cl)cn3)CC2)[C@@H]1N [Example 90, 6-((5-((3S,4S)-4-amino-3-methyl-2-oxa-8-azaspiro[4.5]decan-8-yl)pyrazin-2-yl)thio)-5-chloro-3-(2-oxo-2-(pyridin-3-yl]ethyl)quinazolin-4(3H)-one] |  |  | 
